Here are results for 37 compounds from the supplement of paper PMC10290057.

Experiment [1] has as its system HCT116. The experiment can be described thus: AC50 cell viability (CellTiter-Glo); higher = less potent. The settings on record: 48 h.
Experiment [2] relates to HCT116. The experiment can be described thus: efficacy (fitted maximal change in viability relative to DMSO control); higher = less cytotoxic (negative = loss of viability). As to conditions: 48 h.
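Throughout, for AC50 cell viability (CellTiter-Glo): HCT116 colorectal carcinoma cells screened at five concentrations per compound, luminescent viability scaled between DMSO wells and empty wells on each plate, curves fitted per compound.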
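Throughout, for efficacy (fitted maximal change in viability relative to DMSO control): Luminescence-based viability readout, five doses per compound, normalized against on-plate DMSO and empty-well controls, followed by dose-response curve fitting for every drug.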

`CC1(C)OC/2=C(\[C@H](NCC3=CC=CC=C3)[C@@H]1O)C(=O)C4=CC=CC=C4C2=O` showed an AC50 cell viability with HCT116 [1] of 2.95 µM. Moreover, the efficacy in the experiment on HCT116 [2] is -96.8%.

`Cc1cc(-c2nc3cc(F)ccc3s2)ccc1NC(=O)[C@@H](N)CCCCN` returned an AC50 cell viability in the experiment with HCT116 [1] of 7.42 µM. In addition, the efficacy with HCT116 [2] was -93.6%.

With `Cc1ccc2nc(NCCN)c3ncc(C)n3c2c1`, the AC50 cell viability with HCT116 [1] turned out to be 2.35 µM. Also, the efficacy in the experiment with HCT116 [2] is -78.2%.

Compound `Cc1n[nH]c2ccc(-c3cncc(OC[C@@H](N)Cc4ccccc4)c3)cc12` gave an AC50 cell viability in the experiment on HCT116 [1] of 0.59 µM. For the same compound, the efficacy in the experiment with HCT116 [2] was -69.5%.

Regarding `CCc1ccc(N(CC(C)C)[S+](=O)([O-])c2ccc(OCC3CCOCC3)c(CO)c2)cc1`, the AC50 cell viability in the experiment with HCT116 [1] is 23.5 µM. In addition, the efficacy with HCT116 [2] is -83.5%.

As to `CN1CCN([C@H]2CC[C@H](n3cc(-c4ccc(Oc5ccccc5)cc4)c4c(N)ncnc43)CC2)CC1`, in the experiment with HCT116 [1], the AC50 cell viability is 7.42 µM. The efficacy in the experiment on HCT116 [2] is -110%.

In the experiment on HCT116 [1], `COC1=CC(=C2C(=O)N(COC/3=C/C(=O)N4\C=C/C=C(OCCN5CCCCC5)\C4=N3)[S+]([O-])(=O)C2=C1)C(C)C` came in with an AC50 cell viability of 20.9 µM. Besides, the efficacy with HCT116 [2] was -84.2%.

With `COc1cc(Nc2cnc(C#N)c(O[C@H](C)CN(C)C)n2)ncc1-c1cnn(C)c1`, the AC50 cell viability in the experiment on HCT116 [1] is 11.8 µM. Besides, the efficacy with HCT116 [2] was -121%.

Take `C[C@@H](Oc1ccc2[nH]nc(/C=C/c3cnn(CCO)c3)c2c1)c1c(Cl)cncc1Cl`: the AC50 cell viability in the experiment on HCT116 [1] stood at 0.661 µM. Further, the efficacy with HCT116 [2] is -79.4%.

Regarding `N[S+]([O-])(=O)C1=CC=C(NC/2=C/C(=O)C3=CC=CC=C3C2=O)C=C1`, the AC50 cell viability with HCT116 [1] worked out at 10.5 µM. In the experiment on HCT116 [2], the efficacy was -81.9%.

Turning to `NC(CSC(c1ccccc1)(c1ccccc1)c1ccccc1)C(=O)O` (stereo in doubt) [S-Trityl-L-cysteine], the AC50 cell viability with HCT116 [1] worked out at 23.5 µM. Also, the efficacy with HCT116 [2] is -53.6%.

As for `Nc1nc(F)nc2c1ncn2[C@@H]1O[C@H](CO)[C@@H](O)[C@@H]1O` [2-Fluoroadenosine], in the experiment with HCT116 [1], the AC50 cell viability was found to be 9.34 µM. Further, the efficacy with HCT116 [2] is -57.1%.

In the experiment with HCT116 [1], `COc1cc2c(cc1O)CC[C@@H]1[C@@H]2CC[C@]2(C)[C@@H](O)CC[C@@H]12` [2-Methoxyestradiol (2-MeOE2)] came in with an AC50 cell viability of 2.35 µM. Besides, the efficacy with HCT116 [2] is -63.9%.

In the experiment on HCT116 [1], `NC1=NC=CC2=C1N=C[N]2[C@@H]3\C=C(CO)/[C@@H](O)[C@H]3O` [3-Deazaneplanocin A] came in with an AC50 cell viability of 0.59 µM. In the experiment on HCT116 [2], the efficacy was -55.4%.

As to `Cn1cc(-c2ccc([S+](=O)([O-])n3ccc(/C=C/C(=O)Nc4ccccc4N)c3)cc2)cn1` [4SC-202], the AC50 cell viability in the experiment on HCT116 [1] stood at 1.48 µM. The efficacy with HCT116 [2] is -76.5%.

Take `NC/1=N/C(=O)N(/C=N1)[C@@H]2O[C@H](CO)[C@@H](O)[C@H]2O` [5-Azacitidine]: in the experiment with HCT116 [1], the AC50 cell viability is 5.9 µM. For the same compound, the efficacy in the experiment on HCT116 [2] is -82.6%.

Compound `CC(=O)O/N=C1/C(=C2\C(=O)Nc3cc(Br)ccc32)Nc2ccccc21` [6-Bromoindirubin-3'-acetoxime] registered an AC50 cell viability in the experiment with HCT116 [1] of 10.5 µM. Besides, the efficacy with HCT116 [2] is -92.3%.

In the case of `S=C1N\C=N/C2=C1[NH]C=N2` [6-mercaptopurine], the AC50 cell viability with HCT116 [1] was 1.66 µM. The efficacy in the experiment with HCT116 [2] is -101%.

In the experiment with HCT116 [1], `CN[C@@H]1C[C@H]2O[C@@](C)([C@@H]1OC)n1c3ccccc3c3c4c(c5c6ccccc6n2c5c31)C(=O)N[C@H]4O` [7-Hydroxystaurosporine] had an AC50 cell viability of 0.241 µM. In addition, the efficacy in the experiment on HCT116 [2] was -92.5%.

As for `CC[C@@]1(O)C(=O)OCC/2=C1/C=C3\N(CC4=CC5=CC(=CC=C5N=C34)O)C2=O` [10-hydroxycamptothecin], the AC50 cell viability with HCT116 [1] amounted to 0.105 µM. Further, the efficacy in the experiment with HCT116 [2] was -79.9%.

On to `CCCCC(C)(C)[C@H](O)/C=C/[C@H]1[C@H](O)CC(=O)[C@@H]1C/C=C\CCCC(=O)O` [16,16-dimethyl PGE2], for which the AC50 cell viability with HCT116 [1] was determined as 20.9 µM. Also, in the experiment on HCT116 [2], the efficacy is -64.7%.

Compound `C=CCNC1=C2CC(C)CC(OC)C(O)C(C)/C=C(\C)C(OC(N)=O)C(OC)/C=C/C=C(\C)C(=O)NC(=CC1=O)C2=O` (centres undefined) [17-AAG (KOS953)] displayed an AC50 cell viability in the experiment on HCT116 [1] of 0.417 µM. Moreover, the efficacy with HCT116 [2] is -60.5%.

As for `COC[C@H]1OC(=O)C2=COC3=C2[C@@]1(C)\C4=C(\[C@@H]5CC[C@H](O)[C@@]5(C)C[C@H]4OC(C)=O)C3=O` [17-hydroxy Wortmannin], the AC50 cell viability in the experiment on HCT116 [1] is 20.9 µM. Further, the efficacy with HCT116 [2] is -59.9%.

Take `COC[C@H]1OC(=O)C2=COC3=C2[C@@]1(C)\C4=C(C5CCC(=O)[C@@]5(C)C[C@H]4OC(C)=O)/C3=O` (some centres undefined) [17_-hydroxy Wortmannin]: the AC50 cell viability in the experiment with HCT116 [1] turned out to be 0.468 µM. The efficacy with HCT116 [2] was -43.9%.

The compound `CC1=CC=C2\N=C/3N(CC[C@@]3(O)C(=O)C2=C1)C4=CC=CC=C4` [(-)-Blebbistatin] showed an AC50 cell viability in the experiment on HCT116 [1] of 0.132 µM. The efficacy in the experiment on HCT116 [2] was -35.7%.

In the case of `Cc1cc2c(C(C)C)c(O)c(O)c(C=O)c2c(O)c1-c1c(C)cc2c(C(C)C)c(O)c(O)c(C=O)c2c1O` [(-)-Gossypol], the AC50 cell viability with HCT116 [1] is 16.6 µM. Also, in the experiment with HCT116 [2], the efficacy is -115%.

The compound `Cc1nc(NC(=O)N2CCC[C@H]2C(N)=O)sc1-c1csc(C(C)(C)C)n1` [A-66] showed an AC50 cell viability in the experiment on HCT116 [1] of 1.86 µM. Also, the efficacy in the experiment on HCT116 [2] is -33%.

In turn, `Nc1ncnc2nc(-c3ccc(N4CCOCC4)nc3)cc(-c3cccc(Br)c3)c12` [ABT-702] gave an AC50 cell viability in the experiment on HCT116 [1] of 20.9 µM. For the same compound, the efficacy in the experiment on HCT116 [2] was -53%.

For `CN(C)CC[C@H](CSc1ccccc1)Nc1ccc([S+](=O)([O-])NC(=O)c2ccc(N3CCN(Cc4ccccc4-c4ccc(Cl)cc4)CC3)cc2)cc1[N+](=O)[O-]` [ABT-737], in the experiment with HCT116 [1], the AC50 cell viability is 20.9 µM. Besides, the efficacy in the experiment with HCT116 [2] was -68.4%.

In the case of `Cc1c(NC(=O)OC[C@@H]2COCCN2)cn2ncnc(Nc3ccc4c(cnn4Cc4cccc(F)c4)c3)c12` [AC-480], the AC50 cell viability in the experiment with HCT116 [1] came out at 20.9 µM. In addition, the efficacy in the experiment with HCT116 [2] was -82.6%.

Regarding `CC(=O)NC(C)c1ccc(Oc2ccc(OC(C)C)cc2)cc1` (centres undefined) [ACC1 BMS], the AC50 cell viability in the experiment on HCT116 [1] is 17.1 µM. Further, the efficacy with HCT116 [2] is -47.8%.

Turning to `Cc1ccc(Nc2nnc(Cc3ccncc3)c3ccccc23)cc1Br` [ACC-789], the AC50 cell viability with HCT116 [1] was 20.9 µM. Besides, the efficacy in the experiment on HCT116 [2] was -84.8%.

For `O=C(CCCCCCNC(=O)c1cnc(N(c2ccccc2)c2ccccc2Cl)nc1)NO` [ACY-241], the AC50 cell viability with HCT116 [1] was found to be 5.9 µM. For the same compound, the efficacy with HCT116 [2] is -86.2%.

Regarding `O=C(NO)c1cnc(NC2(c3ccccc3)CC2)nc1` [ACY-738], the AC50 cell viability in the experiment with HCT116 [1] was found to be 3.32 µM. In addition, the efficacy in the experiment with HCT116 [2] was -79.1%.

Compound `O=C(NO)c1cnc(NC2(c3cccc(F)c3)CCCCC2)nc1` [ACY-775] displayed an AC50 cell viability in the experiment with HCT116 [1] of 16.6 µM. For the same compound, the efficacy in the experiment with HCT116 [2] was -75.6%.

Regarding `O=C(CCCCCCNC(=O)c1cnc(N(c2ccccc2)c2ccccc2)nc1)NO` [ACY-1215], the AC50 cell viability in the experiment with HCT116 [1] came out at 7.42 µM. The efficacy with HCT116 [2] is -93.5%.

In the experiment on HCT116 [1], `Nc1ncnc2c1c(-c1cccc(OCc3ccccc3)c1)cn2[C@H]1C[C@H](CN2CCCC2)C1` [ADW-742] returned an AC50 cell viability of 16.6 µM. Besides, in the experiment with HCT116 [2], the efficacy was -84.3%.
